Experimental data taken from publication PMC9060753, “pDobz/pDobb protected diaminodiacid as a novel building block for peptide disulfide-bond mimic synthesis” (RSC Advances, 2019).
Bridge positions count the residues as written; N and C are the ends. Square brackets hold non-standard residues; d marks the D form. Triazole bridges read from a SMILES are 1,4-linked. Peptide text beside a SMILES is read from it. Dap(N3) = [N-]=[N+]=NC[C@H](N)C(=O)O; Pra = C#CC[C@H](N)C(=O)O

Columns and labels:
[1] = target: α-chymotrypsin (Bos taurus, UniProt P00766); details: pH 7.4
[2] = pH 7.4

Row | Compound | Difference of protease stability versus native model peptide contryphan-Vn [1] | Protease stability under α-chymotrypsin treatment (percent residual peptide) [1] | Reduction stability in aqueous DTT solution (percent residual peptide) [2]
1 | NCCCC[C@@H]1NC(=O)[C@@H](Cc2c[nH]c3ccccc23)NC(=O)[C@@H]2CCCN2C(=O)[C@@H](NC(=O)[C@H](CC(=O)O)NC(=O)CN)Cn2cc(nn2)C[C@@H](C(N)=O)NC(=O)[C@H](Cc2c[nH]c3ccccc23)NC(=O)[C@@H]2CCCN2C1=O [Compound 14, [Ala1(&^1),Ala7(&^2)]contryphan-Vn[1,9][(&^1-1,4-[1,2,3]-triazolyl-&^2)]] (H-GD[Dap(N3)]P[dW]KPW[Pra]-NH2; triazole 3-9) | No significant differences | degraded completely | remained intact
2 | NCCCC[C@@H]1NC(=O)[C@@H](Cc2c[nH]c3ccccc23)NC(=O)[C@@H]2CCCN2C(=O)[C@@H](NC(=O)[C@H](CC(=O)O)NC(=O)CN)CSSC[C@@H](C(N)=O)NC(=O)[C@H](Cc2c[nH]c3ccccc23)NC(=O)[C@@H]2CCCN2C1=O [contryphan-Vn, Contryphan-Vn[1,9], reference compound] (H-GDCP[dW]KPWC-NH2; disulfide 3-9) | – | degraded completely | completely reduced
